Assays:
Format in all cases: in vivo
[1] = tested on: barnyardgrass (Echinochloa crus-galli L.): ECHCG; assay: Test Example 1 pre-emergence herbicidal activity, ECHCG; conditions: visually observed 20th to 23rd day after application
Procedure, shortened: (§1)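 Scoring was visual growth control (0 = untreated, 100 = complete kill) on days 20–23 post-application. Treatment came as a pre-emergence spray one day after sowing in upland soil, using wettable powder or emulsifiable concentrate diluted in 500 L/ha water at predetermined active-ingredient amounts.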

[2] = tested on: crabgrass (Digitaria sanguinalis L.): DIGSA; assay: Test Example 1 pre-emergence herbicidal activity, DIGSA; conditions: visually observed 20th to 23rd day after application
Procedure, shortened: as §1

[3] = tested on: green foxtail (Setaria viridis L.): SETVI; assay: Test Example 1 pre-emergence herbicidal activity, SETVI; conditions: visually observed 20th to 23rd day after application
Procedure, shortened: as §1

[4] = tested on: redroot pigweed (Amaranthus retroflexus L.): AMARE; assay: Test Example 1 pre-emergence herbicidal activity, AMARE; conditions: visually observed 20th to 23rd day after application
Procedure, shortened: as §1

[5] = tested on: prickly sida (Sida spinosa L.): SEDSP; assay: Test Example 1 pre-emergence herbicidal activity, SIDSP; conditions: visually observed 20th to 23rd day after application
Procedure, shortened: as §1

[6] = tested on: velvetleaf (Abutilon theophrasti): ABUTH; assay: Test Example 1 pre-emergence herbicidal activity, ABUTH; conditions: visually observed 20th to 23rd day after application
Procedure, shortened: as §1

[7] = tested on: rice (Oryza sativa L.): ORYSA; assay: Test Example 1 pre-emergence herbicidal activity, ORYSA; conditions: visually observed 20th to 23rd day after application
Procedure, shortened: as §1

[8] = tested on: wheat (Triticum aestivum L.): TRZAX; assay: Test Example 1 pre-emergence herbicidal activity, TRZAX; conditions: visually observed 20th to 23rd day after application
Procedure, shortened: as §1

[9] = tested on: corn (Zea mays L.): ZEAMX; assay: Test Example 1 pre-emergence herbicidal activity, ZEAMX; conditions: visually observed 20th to 23rd day after application
Procedure, shortened: as §1

[10] = tested on: soybean (Glycine max Merr.): GLXMA; assay: Test Example 1 pre-emergence herbicidal activity, GLXMA; conditions: visually observed 20th to 23rd day after application
Procedure, shortened: as §1

[11] = tested on: barnyardgrass (Echinochloa crus-galli L.), ECHCG; assay: Test Example 2 post-emergence (foliage treatment) herbicidal activity, ECHCG; conditions: 63 g a.i./ha
Procedure, shortened: (§2)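 Visual rating of growth control, from 0 (untreated-like) to 100 (complete kill), was done 20–23 days after post-emergence spraying. Wettable powder or emulsifiable concentrate was diluted to 500 L/ha with 0.1% (v/v) spreader. Leaf stages at application were 1.1-2.1 (ECHCG), 1.0-2.0 (DIGSA), 0.1-1.5 (AMARE) and 1.0-2 (ORYSA).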

[12] = tested on: crabgrass (Digitaria sanguinalis L.), DIGSA; assay: Test Example 2 post-emergence (foliage treatment) herbicidal activity, DIGSA; conditions: 63 g a.i./ha
Procedure, shortened: as §2

[13] = tested on: green foxtail (Setaria viridis L.), SETVI; assay: Test Example 2 post-emergence (foliage treatment) herbicidal activity, SETVI; conditions: 63 g a.i./ha
Procedure, shortened: (§3)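 Each species was evaluated for growth suppression by eye, 0% matching untreated and 100% meaning death, some 20 to 23 days after a single post-emergence foliar treatment applied in 500 L/ha of water carrying 0.1% (v/v) agricultural spreader.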

[14] = tested on: redroot pigweed (Amaranthus retroflexus L.), AMARE; assay: Test Example 2 post-emergence (foliage treatment) herbicidal activity, AMARE; conditions: 63 g a.i./ha
Procedure, shortened: as §2

[15] = tested on: prickly sida (Sida spinosa L.), SIDSP; assay: Test Example 2 post-emergence (foliage treatment) herbicidal activity, SIDSP; conditions: 63 g a.i./ha
Procedure, shortened: as §3

[16] = tested on: velvetleaf (Abutilon theophrasti), ABUTH; assay: Test Example 2 post-emergence (foliage treatment) herbicidal activity, ABUTH; conditions: 63 g a.i./ha
Procedure, shortened: as §3

[17] = tested on: rice (Oryza sativa L.), ORYSA; assay: Test Example 2 post-emergence (foliage treatment) herbicidal activity, ORYSA; conditions: 63 g a.i./ha
Procedure, shortened: as §2

[18] = tested on: wheat (Triticum aestivum L.), TRZAX; assay: Test Example 2 post-emergence (foliage treatment) herbicidal activity, TRZAX; conditions: 63 g a.i./ha
Procedure, shortened: as §3

[19] = tested on: corn (Zea mays L.), ZEAMX; assay: Test Example 2 post-emergence (foliage treatment) herbicidal activity, ZEAMX; conditions: 63 g a.i./ha
Procedure, shortened: as §3

[20] = tested on: soybean (Glycine max Merr.), GLXMA; assay: Test Example 2 post-emergence (foliage treatment) herbicidal activity, GLXMA; conditions: 63 g a.i./ha
Procedure, shortened: as §3

[21] = tested on: barnyardgrass (Echinochiloa oryzicola: ECHOR); assay: Test Example 3 water application herbicidal activity (paddy), ECHOR; conditions: 63 g a.i./ha, water application under submerged condition at 0.5 leaf stage, visually observed 14th day after application; 0 = untreated control, 100 = complete kill
Procedure, shortened: (§4)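 Compound, as diluted wettable powder or emulsifiable concentrate, was pipetted into flood water at a set active-ingredient dose. Weeds were treated at 0.5-leaf stage after sowing or tuber planting; 2-leaf rice 4 days post-transplant. Control scored visually, 0 untreated to 100 complete kill, weeds day 14, rice day 21.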

[22] = tested on: japanese bulrush (Scirpus juncoides: SCPJO); assay: Test Example 3 water application herbicidal activity (paddy), SCPJO; conditions: 63 g a.i./ha, water application under submerged condition at 0.5 leaf stage, visually observed 14th day after application; 0 = untreated control, 100 = complete kill
Procedure, shortened: as §4

[23] = tested on: japanese ribbon wapato (Sagittaria pygmaea: SA GPY); assay: Test Example 3 water application herbicidal activity (paddy), SAGPY; conditions: 63 g a.i./ha, water application under submerged condition, tubers planted, visually observed 14th day after application; 0 = untreated control, 100 = complete kill
Procedure, shortened: as §4

[24] = tested on: rice (Oryza sativa L.: ORYSA); assay: Test Example 3 water application herbicidal activity (paddy), transplanted rice ORYSA; conditions: 63 g a.i./ha, water application 4th day after transplantation of 2 leaf stage rice, visually observed 21st day after application; 0 = untreated control, 100 = complete kill
Procedure, shortened: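 Submerged application in flooded paddy soil (3–4 cm water); weeds treated at 0.5-leaf stage, transplanted rice 4 d after transplanting. Scored visually as % growth control: weeds at 14 d, rice at 21 d.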

SMILES	Pre-emergence Herbicidal Activity ECHCG (growth controlling degree) ([1]; Rate 63 g a.i./ha) [%]	Pre-emergence Herbicidal Activity DIGSP (growth controlling degree) ([2]; Rate 63 g a.i./ha) [%]	Pre-emergence Herbicidal Activity SETVI (growth controlling degree) ([3]; Rate 63 g a.i./ha) [%]	Pre-emergence Herbicidal Activity AMARE (growth controlling degree) ([4]; Rate 63 g a.i./ha) [%]	Pre-emergence Herbicidal Activity SIDSP (growth controlling degree) ([5]; Rate 63 g a.i./ha) [%]	Pre-emergence Herbicidal Activity ABUTH (growth controlling degree) ([6]; Rate 63 g a.i./ha) [%]	growth controlling degree, ECHCO [11] [%]	growth controlling degree, DIGSP [12] [%]	growth controlling degree, SETVI [13] [%]	growth controlling degree, AMARE [14] [%]	growth controlling degree, SIDSP [15] [%]	growth controlling degree, ABUTH [16] [%]	growth controlling degree, ORYSA [17] [%]	growth controlling degree, TRZAX [18] [%]	growth controlling degree, ZEAMX [19] [%]	growth controlling degree, GLXMA [20] [%]	growth controlling degrees (%) ECHOR [21] [%]	growth controlling degrees (%) SCPJO [22] [%]	growth controlling degrees (%) SAGPY [23] [%]	growth controlling degrees (%) ORYSA [24] [%]	other results
COc1c(Cl)cc(F)c(-c2nn(C)c(OC(F)F)c2Cl)c1NC(=O)COc1ccccc1 [Compound 1-15]	70	100	100	100	60	60	90	70	100	100	100	100	80	50	50	50	100	90	98	50	Pre-emergence Herbicidal Activity ORYSA (growth controlling degree) ([7]; Rate 63 g a.i./ha): 40%; Pre-emergence Herbicidal Activity TRZAX (growth controlling degree) ([8]; Rate 63 g a.i./ha): 30%; Pre-emergence Herbicidal Activity ZEAMX (growth controlling degree) ([9]; Rate 63 g a.i./ha): 10%; Pre-emergence Herbicidal Activity GLXMA (growth controlling degree) ([10]; Rate 63 g a.i./ha): 30%
COc1c(Cl)cc(F)c(-c2nn(C)c(OC(F)F)c2Cl)c1N(C=O)C(C)C [Compound 1-8]	70	60	100	100	100	100	70	60	100	100	100	100	60	50	40	70	80	60	20	30	Pre-emergence Herbicidal Activity ORYSA (growth controlling degree) ([7]; Rate 63 g a.i./ha): 60%; Pre-emergence Herbicidal Activity TRZAX (growth controlling degree) ([8]; Rate 63 g a.i./ha): 50%; Pre-emergence Herbicidal Activity ZEAMX (growth controlling degree) ([9]; Rate 63 g a.i./ha): 40%; Pre-emergence Herbicidal Activity GLXMA (growth controlling degree) ([10]; Rate 63 g a.i./ha): 70%
COc1ccc(OC(=O)N(C(=O)Oc2ccc(OC)cc2)c2c(OC)c(Cl)cc(F)c2-c2nn(C)c(OC(F)F)c2Cl)cc1 [Compound 1-65]							0	0	0	10	0	0	0	0	0	10	50	0	0	20	Pre-emergence Herbicidal Activity ECHCG (growth controlling degree) ([1]; Rate 125 g a.i./ha): 0%; Pre-emergence Herbicidal Activity DIGSP (growth controlling degree) ([2]; Rate 125 g a.i./ha): 0%; Pre-emergence Herbicidal Activity SETVI (growth controlling degree) ([3]; Rate 125 g a.i./ha): 10%; Pre-emergence Herbicidal Activity AMARE (growth controlling degree) ([4]; Rate 125 g a.i./ha): 20%; Pre-emergence Herbicidal Activity SIDSP (growth controlling degree) ([5]; Rate 125 g a.i./ha): 10%; Pre-emergence Herbicidal Activity ABUTH (growth controlling degree) ([6]; Rate 125 g a.i./ha): 10%; Pre-emergence Herbicidal Activity ORYSA (growth controlling degree) ([7]; Rate 125 g a.i./ha): 0%; Pre-emergence Herbicidal Activity TRZAX (growth controlling degree) ([8]; Rate 125 g a.i./ha): 0%; Pre-emergence Herbicidal Activity ZEAMX (growth controlling degree) ([9]; Rate 125 g a.i./ha): 0%; Pre-emergence Herbicidal Activity GLXMA (growth controlling degree) ([10]; Rate 125 g a.i./ha): 0%
COc1c(Cl)cc(F)c(-c2nn(C)c(OC(F)F)c2Cl)c1NC(=O)c1ccc(F)cc1F [Compound 1-30]	60	100	100	100	100	100	100	100	100	100	100	100	90	50	60	95	100	98	100	60	Pre-emergence Herbicidal Activity ORYSA (growth controlling degree) ([7]; Rate 63 g a.i./ha): 10%; Pre-emergence Herbicidal Activity TRZAX (growth controlling degree) ([8]; Rate 63 g a.i./ha): 0%; Pre-emergence Herbicidal Activity ZEAMX (growth controlling degree) ([9]; Rate 63 g a.i./ha): 10%; Pre-emergence Herbicidal Activity GLXMA (growth controlling degree) ([10]; Rate 63 g a.i./ha): 10%

Reference: patent US20050245399A1, “Pyrazole derivatives as herbicidal compositions containing them” (ISHIHARA SANGYO KAISHA, LTD., priority 2004, published 2005)
